This note sets out measurements from ChEMBL document CHEMBL1201862, “PubChem BioAssay data set” (2004).

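Method: 48-hour compound exposure of cells in 96-well plates, five concentrations, linear interpolation of endpoints. At the GI50, growth is halved.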 Activity calls are given as the source filed them. Cut-off read from the data, not from the text of the source: active = GI50 up to about 1.1 µM and inactive = higher. Some results are limits rather than exact numbers.

Test systems include A498; ACHN; BT-549; CAKI-1; HCC 2998; HCT-116; KM12; MCF7; NCI-H23; NCI-H460; NCI/ADR-RES; OVCAR-3; RXF 393; SK-MEL-28; SN12C; SR; T47D; UACC-257; UACC-62.
What all share (test): inhibition of tumour cell growth, NCI panel, 48 h

In the case of `O=C(O)C1CC(O)CN1` (stereo not drawn), the GI50 in the experiment with A498, in the experiment with ACHN, in the experiment with BT-549, in the experiment on CAKI-1, with HCC 2998 and in the experiment on HCT-116 was > 100 µM (inactive) throughout. For the same molecule, the GI50 in the experiment on KM12, with MCF7, with NCI-H23, with NCI-H460, in the experiment on NCI/ADR-RES and in the experiment on OVCAR-3 was > 100 µM (inactive) each time. The GI50 in the experiment with RXF 393, in the experiment with SK-MEL-28, with SN12C, with SR, in the experiment with T47D and in the experiment on UACC-257 was > 100 µM (inactive) throughout. In the experiment with UACC-62, the GI50 is > 100 µM (inactive).

In the case of `O=C(NNC(=O)c1ccccc1O)c1cccc(Br)c1`, the GI50 in the experiment with A498 is > 92.9 µM (inactive); in the experiment with ACHN, 7 µM (inactive); in the experiment with BT-549 it was > 100 µM (inactive); in the experiment on CAKI-1, 24.3 µM (inactive); in the experiment with HCC 2998, 17.7 µM (inactive); in the experiment on HCT-116, 24.1 µM (inactive). In addition, the GI50 in the experiment on KM12 was > 42.6 µM (inactive); in the experiment on MCF7, 6.71 µM (inactive); with NCI-H23 it was > 100 µM (inactive); with NCI-H460 it was 8.43 µM (inactive); in the experiment on NCI/ADR-RES, 21.1 µM (inactive); in the experiment on OVCAR-3, 8.47 µM (inactive). For the same molecule, the GI50 in the experiment on RXF 393 was > 100 µM (inactive); in the experiment with SK-MEL-28, > 91.8 µM (inactive); with SN12C it was 98.9 µM (inactive); in the experiment on SR, 12.9 µM (inactive); with T47D, > 51.6 µM (inactive); in the experiment on UACC-257 it was > 77.6 µM (inactive). The GI50 with UACC-62 is 47.3 µM (inactive).

For the molecule `N#C/C=C1\C=CC(O)C(O)C1OC1OC(CO)C(O)C(O)C1O` (stereo not drawn), the GI50 in the experiment with A498, in the experiment on ACHN, in the experiment with BT-549, in the experiment on CAKI-1, in the experiment with HCC 2998 and in the experiment on HCT-116 was > 100 µM (inactive) in each case. Moreover, the GI50 with KM12, in the experiment with MCF7, with NCI-H23, with NCI-H460, in the experiment with NCI/ADR-RES and with OVCAR-3 was > 100 µM (inactive) throughout. Besides, the GI50 is > 100 µM (inactive) in the experiment with RXF 393; > 100 µM (inactive) in the experiment with SK-MEL-28; > 100 µM (inactive) in the experiment on SN12C; > 10 µM (inactive) in the experiment on SR; > 100 µM (inactive) with T47D; > 100 µM (inactive) with UACC-257. For the same molecule, the GI50 in the experiment on UACC-62 is > 100 µM (inactive).

For `COc1ccc(N2C(=O)/C(=C\c3cc(OC)c(OC)c(OC)c3)S(=O)(=O)C2c2ccccc2)cc1` (stereo not drawn), the GI50 with A498 was > 100 µM (inactive); in the experiment with ACHN, 48.3 µM (inactive); with BT-549 it was 22 µM (inactive); in the experiment with CAKI-1 it was 84.7 µM (inactive); in the experiment with HCC 2998, 89.3 µM (inactive); in the experiment on HCT-116 it was 18.8 µM (inactive). Further, the GI50 with KM12 was 29.2 µM (inactive); in the experiment with MCF7, 30.2 µM (inactive); in the experiment with NCI-H23 it was 25.8 µM (inactive); with NCI-H460, 47.6 µM (inactive); with NCI/ADR-RES, 17.2 µM (inactive); in the experiment with OVCAR-3, 27 µM (inactive). Further, the GI50 in the experiment with RXF 393 is 15.7 µM (inactive); in the experiment on SK-MEL-28 it was 50.7 µM (inactive); in the experiment with SN12C, > 100 µM (inactive); in the experiment on SR, 11 µM (inactive); in the experiment on T47D it was 24.7 µM (inactive); in the experiment on UACC-257, 52.7 µM (inactive). For the same molecule, in the experiment with UACC-62, the GI50 was 21.6 µM (inactive).

As to `C/C=C/COc1cc(NC(=S)OC(C)C)ccc1Cl.C/C=C\COc1cc(NC(=S)OC(C)C)ccc1Cl`, the GI50 in the experiment on A498 is 16.2 µM (inactive); with ACHN, 17.7 µM (inactive); in the experiment with BT-549 it was 19.6 µM (inactive); with CAKI-1, 4.06 µM (inactive); in the experiment with HCC 2998, 16.1 µM (inactive); with HCT-116 it was 17.4 µM (inactive). For the same molecule, the GI50 with KM12 is 17.4 µM (inactive); in the experiment on MCF7, 19.8 µM (inactive); in the experiment on NCI-H23, 16.9 µM (inactive); in the experiment with NCI-H460, 16 µM (inactive); in the experiment with NCI/ADR-RES, 16 µM (inactive); in the experiment with OVCAR-3 it was 18.5 µM (inactive). Further, the GI50 in the experiment on RXF 393 is 14.9 µM (inactive); with SK-MEL-28 it was 17.6 µM (inactive); in the experiment with SN12C, 14.2 µM (inactive); in the experiment with SR, 16.8 µM (inactive); in the experiment with T47D, 16.9 µM (inactive); in the experiment on UACC-257 it was 18.7 µM (inactive). Moreover, the GI50 with UACC-62 is 15.8 µM (inactive).

As to `CC(=O)NC1=CC(=O)c2cc(C)cc(O)c2C1=O`, the GI50 was 11 µM (inactive) with A498; 9.66 µM (inactive) in the experiment on ACHN; 7.06 µM (inactive) in the experiment on BT-549; 17.8 µM (inactive) in the experiment on CAKI-1; 2.03 µM (inactive) in the experiment with HCC 2998; 5.51 µM (inactive) in the experiment with HCT-116. Also, the GI50 with KM12 is 9.84 µM (inactive); with MCF7, 2.39 µM (inactive); in the experiment on NCI-H23 it was 1.72 µM (inactive); in the experiment on NCI-H460, 14.9 µM (inactive); with NCI/ADR-RES it was 5.77 µM (inactive); in the experiment with OVCAR-3, 2.65 µM (inactive). Besides, the GI50 was 12.5 µM (inactive) in the experiment with RXF 393; 0.822 µM (active) in the experiment with SK-MEL-28; 5.09 µM (inactive) with SN12C; 9.1 µM (inactive) in the experiment with SR; 14.5 µM (inactive) with T47D; 1.85 µM (inactive) in the experiment on UACC-257. Also, the GI50 with UACC-62 is 2.02 µM (inactive).

Turning to `C[C@H]1[C@H](C)CC[C@]2(C(=O)OC3OC(CO)C(O)C(O)C3O)CC[C@]3(C)C(=CC[C@@H]4[C@@]5(C)C[C@H]6OC(=O)c7cc(O)c(O)c(O)c7-c7c(cc(O)c(O)c7O)C(=O)O[C@@H]6C(CO)(CO)[C@@H]5CC[C@]43C)[C@H]12` (stereo partly drawn), the GI50 was > 100 µM (inactive) in the experiment with A498; > 100 µM (inactive) with ACHN; > 100 µM (inactive) in the experiment on BT-549; 19.5 µM (inactive) in the experiment on CAKI-1; 82.4 µM (inactive) in the experiment with HCC 2998; 54.1 µM (inactive) in the experiment with HCT-116. Further, the GI50 is 42.9 µM (inactive) in the experiment on KM12; 17 µM (inactive) with MCF7; > 100 µM (inactive) in the experiment on NCI-H23; 45.1 µM (inactive) in the experiment on NCI-H460; > 100 µM (inactive) in the experiment on NCI/ADR-RES; > 43 µM (inactive) with OVCAR-3. The GI50 in the experiment with RXF 393 is > 100 µM (inactive); with SK-MEL-28 it was > 100 µM (inactive); in the experiment on SN12C it was 58.3 µM (inactive); with SR, 27 µM (inactive); in the experiment on T47D, > 74.8 µM (inactive); in the experiment on UACC-257, > 100 µM (inactive). Besides, the GI50 in the experiment with UACC-62 was 99.3 µM (inactive).
